SMILES strings stand for the structures.

For experiment [1], the system named is Phytophthora infestans. The experiment is described as follows: microbe, parasite or virus in culture. In kind it is cell-based. To be noted: in Secale cereale, 168 h, read-out: control compared to the untreated check.
For a further experiment, the system named is Plasmopara viticola. The experiment is described as follows: Example B: Plasmopara viticola test in grape (greenhouse, preventive). The experiment is classed as in vivo. The settings on record: 24 h, grape seedlings sprayed one day before inoculation, disease severity rating, read-out: control compared to the untreated check. As to the method: Example B: Plasmopara viticola Test in Grape
The compound were dissolved in 2% DMSO/Acetone & then mixed with water containing emulsifier to a calibrated spray volume of 50 mL. The spray solutions were poured into spray bottles for further applications.
To test the preventive activity of compounds, 5 week old healthy grape seedlings, cv. Thompson seedless, raised in the greenhouse, were sprayed with the active compound preparation at the stated application rates inside spray cabinets using hallow cone nozzles. One day after treatment, the plants were inoculated with an inoculum suspension (sterile water) containing 6×10^4 Plasmopara viticola inoculum. The inoculated plants were then kept in a greenhouse chamber at 18-21° C. temperature and 95-100% relative humidity for disease expression.
A visual assessment of the performance of the compound was carried out by rating the disease severity (0-100% scale) on treated plants 3, 7 and 10 days after application. Efficacy (% control) of the compound was calculated by comparing the disease rating in the treatment with the one of the untreated control. The compounds were also assessed for their plant compatibility by recording symptoms like necrosis, chlorosis & stunting

Experiment [2] deals with Phytophthora infestans. The experiment is described as follows: whole plant or invertebrate. The experiment is classed as in vivo, Phytophthora infestans on tomato plants. To be noted: in Solanum lycopersicum, 24 h, read-out: control compared to the untreated check.

`N#Cc1ccnc(OCC(=O)N2CCC(c3nc(C4=NOC(c5c(F)cccc5F)C4)cs3)CC2)n1` (stereo not drawn) [Compound 116, 2-(2-(4-(4-(5-(2,6-difluorophenyl)-4,5-dihydroisoxazol-3-yl)thiazol-2-yl)piperidin-1-yl)-2-oxoethoxy)pyrimidine-4-carbonitrile]: the inhibition of growth at 30 ppm in the experiment on Phytophthora infestans [1] is no less than 70%. Moreover, the pest or weed control at 50 ppm in the experiment with Plasmopara viticola and with Phytophthora infestans [2] was no less than 70% in each case.

For `O=C(COc1nccnc1C(F)(F)F)N1CCC(c2nc(C3=NOC(c4c(F)cccc4F)C3)sc2Cl)CC1` (stereo not drawn) [Compound 22, 1-(4-(5-chloro-2-(5-(2,6-difluorophenyl)-4,5-dihydroisoxazol-3-yl)thiazol-4-yl)piperidin-1-yl)-2-((3-(trifluoromethyl)pyrazin-2-yl)oxy)ethan-1-one], in the experiment on Plasmopara viticola, the pest or weed control at 50 ppm was no less than 70%.

`CS(=O)(=O)Oc1cccc(Cl)c1C1CC(c2csc(C3CCN(C(=O)COc4nccc(C#N)n4)CC3)n2)=NO1` (stereo not drawn) [Compound 113, 3-chloro-2-(3-(2-(1-(2-((4-cyanopyrimidin-2-yl)oxy)acetyl)piperidin-4-yl)thiazol-4-yl)-4,5-dihydroisoxazol-5-yl)phenyl methanesulfonate]: the inhibition of growth at 30 ppm in the experiment with Phytophthora infestans [1] was no less than 70%. In addition, the pest or weed control at 50 ppm in the experiment with Plasmopara viticola and in the experiment on Phytophthora infestans [2] was no less than 70% each time.

With `CS(=O)(=O)Oc1cccc(Cl)c1C1CC(c2csc(C3CCN(C(=O)COc4nccnc4Cl)CC3)n2)=NO1` (stereo not drawn) [Compound 127, 3-chloro-2-(3-(2-(1-(2-((3-chloropyrazin-2-yl)oxy)acetyl)piperidin-4-yl)thiazol-4-yl)-4,5-dihydroisoxazol-5-yl)phenyl methanesulfonate], the pest or weed control at 50 ppm with Plasmopara viticola and with Phytophthora infestans [2] was no less than 70% throughout.

Turning to `N#Cc1ccnc(OCC(=O)N2CCC(c3nc(C4=NOC(c5c(F)cccc5Cl)C4)cs3)CC2)n1` (stereo not drawn) [Compound 118, 2-(2-(4-(4-(5-(2-chloro-6-fluorophenyl)-4,5-dihydroisoxazol-3-yl)thiazol-2-yl)piperidin-1-yl)-2-oxoethoxy)pyrimidine-4-carbonitrile], in the experiment on Phytophthora infestans [1], the inhibition of growth at 30 ppm is no less than 70%. The pest or weed control at 50 ppm in the experiment on Plasmopara viticola and in the experiment on Phytophthora infestans [2] was no less than 70% each time.

In the case of `O=C(COc1nccnc1Cl)N1CCC(c2nc(C3=NOC(c4c(F)cccc4F)C3)cs2)CC1` (stereo not drawn) [Compound 122, 2-((3-chloropyrazin-2-yl)oxy)-1-(4-(4-(5-(2,6-difluorophenyl)-4,5-dihydroisoxazol-3-yl)thiazol-2-yl)piperidin-1-yl)ethan-1-one], the inhibition of growth at 30 ppm with Phytophthora infestans [1] was no less than 70%. Further, the pest or weed control at 50 ppm with Plasmopara viticola and in the experiment on Phytophthora infestans [2] was no less than 70% in each case.

In the case of `O=C(COc1nccnc1C(F)(F)F)N1CCC(c2nc(C3=NOC(c4c(Cl)cccc4Cl)C3)cs2)CC1` (stereo not drawn) [Compound 3, 1-(4-(4-(5-(2,6-dichlorophenyl)-4,5-dihydroisoxazol-3-yl)thiazol-2-yl)piperidin-1-yl)-2-((3-(trifluoromethyl)pyrazin-2-yl)oxy)ethan-1-one], the inhibition of growth at 30 ppm in the experiment with Phytophthora infestans [1] was no less than 70%. The pest or weed control at 50 ppm in the experiment on Plasmopara viticola and with Phytophthora infestans [2] was no less than 70% throughout.

For `O=C(COc1nccnc1Cl)N1CCC(c2nc(C3=NOC(c4c(F)cccc4Br)C3)cs2)CC1` (stereo not drawn) [Compound 121, 1-(4-(4-(5-(2-bromo-6-fluorophenyl)-4,5-dihydroisoxazol-3-yl)thiazol-2-yl)piperidin-1-yl)-2-((3-chloropyrazin-2-yl)oxy)ethan-1-one], the inhibition of growth at 30 ppm in the experiment with Phytophthora infestans [1] is no less than 70%. Besides, the pest or weed control at 50 ppm in the experiment on Plasmopara viticola and in the experiment on Phytophthora infestans [2] was no less than 70% each time.

As to `O=C(COc1nccnc1C(F)(F)F)N1CCC(c2nc(C3=NOC(c4c(Cl)cc(Cl)cc4Cl)C3)cs2)CC1` (stereo not drawn) [Compound 2, 1-(4-(4-(5-(2,4,6-trichlorophenyl)-4,5-dihydroisoxazol-3-yl)thiazol-2-yl)piperidin-1-yl)-2-((3-(trifluoromethyl)pyrazin-2-yl)oxy)ethan-1-one], in the experiment on Phytophthora infestans [1], the inhibition of growth at 30 ppm is no less than 70%. Moreover, the pest or weed control at 50 ppm in the experiment with Plasmopara viticola and in the experiment on Phytophthora infestans [2] was no less than 70% throughout.

For the molecule `O=C(COc1nccnc1C(F)(F)F)N1CCC(c2csc(C3=NOC(c4c(F)cccc4F)C3)n2)CC1` (stereo not drawn) [Compound 23, 1-(4-(2-(5-(2,6-difluorophenyl)-4,5-dihydroisoxazol-3-yl)thiazol-4-yl)piperidin-1-yl)-2-((3-(trifluoromethyl)pyrazin-2-yl)oxy)ethan-1-one], the inhibition of growth at 30 ppm with Phytophthora infestans [1] is no less than 70%. Moreover, the pest or weed control at 50 ppm with Plasmopara viticola was no less than 70%.

Take `N#Cc1ccnc(OCC(=O)N2CCC(c3nc(C4=NOC(c5c(Cl)cccc5Cl)C4)cs3)CC2)n1` (stereo not drawn) [Compound 112, 2-(2-(4-(4-(5-(2,6-dichlorophenyl)-4,5-dihydroisoxazol-3-yl)thiazol-2-yl)piperidin-1-yl)-2-oxoethoxy)pyrimidine-4-carbonitrile]: in the experiment on Phytophthora infestans [1], the inhibition of growth at 30 ppm was no less than 70%. The pest or weed control at 50 ppm in the experiment with Plasmopara viticola and in the experiment with Phytophthora infestans [2] was no less than 70% each time.

Consider `O=C(COc1nccnc1Cl)N1CCC(c2nc(C3=NOC(c4c(F)cccc4Cl)C3)cs2)CC1` (stereo not drawn) [Compound 125, 1-(4-(4-(5-(2-chloro-6-fluorophenyl)-4,5-dihydroisoxazol-3-yl)thiazol-2-yl)piperidin-1-yl)-2-((3-chloropyrazin-2-yl)oxy)ethan-1-one], for which the pest or weed control at 50 ppm in the experiment on Plasmopara viticola and in the experiment on Phytophthora infestans [2] was no less than 70% in each case.

For the molecule `O=C(COc1nccnc1Cl)N1CCC(c2nc(C3=NOC(c4c(Cl)cc(Cl)cc4Cl)C3)cs2)CC1` (stereo not drawn) [Compound 123, 2-((3-chloropyrazin-2-yl)oxy)-1-(4-(4-(5-(2,4,6-trichlorophenyl)-4,5-dihydroisoxazol-3-yl)thiazol-2-yl)piperidin-1-yl)ethan-1-one], the pest or weed control at 50 ppm in the experiment on Plasmopara viticola and with Phytophthora infestans [2] was no less than 70% in each case.

Take `O=C(COc1nccnc1Cl)N1CCC(c2nc(C3=NOC(c4c(Cl)cccc4Cl)C3)cs2)CC1` (stereo not drawn) [Compound 124, 2-((3-chloropyrazin-2-yl)oxy)-1-(4-(4-(5-(2,6-dichlorophenyl)-4,5-dihydroisoxazol-3-yl)thiazol-2-yl)piperidin-1-yl)ethan-1-one]: the inhibition of growth at 30 ppm in the experiment with Phytophthora infestans [1] was no less than 70%. Besides, the pest or weed control at 50 ppm in the experiment on Plasmopara viticola and in the experiment on Phytophthora infestans [2] was no less than 70% in each case.

`N#Cc1ccnc(OCC(=O)N2CCC(c3nc(C4=NOC(c5c(Cl)cccc5C(F)(F)F)C4)cs3)CC2)n1` (stereo not drawn) [Compound 114, 2-(2-(4-(4-(5-(2-chloro-6-(trifluoromethyl)phenyl)-4,5-dihydroisoxazol-3-yl)thiazol-2-yl)piperidin-1-yl)-2-oxoethoxy)pyrimidine-4-carbonitrile]: the inhibition of growth at 30 ppm in the experiment on Phytophthora infestans [1] was no less than 70%. Also, the pest or weed control at 50 ppm with Plasmopara viticola and in the experiment on Phytophthora infestans [2] was no less than 70% throughout.

As to `COc1cncc(OCC(=O)N2CCC(c3nc(C4=NOC(c5c(F)cccc5Br)C4)cs3)CC2)n1` (stereo not drawn) [Compound 120, 1-(4-(4-(5-(2-bromo-6-fluorophenyl)-4,5-dihydroisoxazol-3-yl)thiazol-2-yl)piperidin-1-yl)-2-((6-methoxypyrazin-2-yl)oxy)ethan-1-one], the inhibition of growth at 30 ppm in the experiment with Phytophthora infestans [1] was no less than 70%. The pest or weed control at 50 ppm with Plasmopara viticola and with Phytophthora infestans [2] was no less than 70% throughout.

As for `O=C(COc1nccnc1C(F)(F)F)N1CCC(c2nc(C3=NOC(c4c(F)cccc4Cl)C3)cs2)CC1` (stereo not drawn) [Compound 1, 1-(4-(4-(5-(2-chloro-6-fluorophenyl)-4,5-dihydroisoxazol-3-yl)thiazol-2-yl)piperidin-1-yl)-2-((3-(trifluoromethyl)pyrazin-2-yl)oxy)ethan-1-one], in the experiment on Phytophthora infestans [1], the inhibition of growth at 30 ppm is no less than 70%. The pest or weed control at 50 ppm with Plasmopara viticola and in the experiment on Phytophthora infestans [2] was no less than 70% throughout.

Consider `COc1nc(OC)nc(OCC(=O)N2CCC(c3nc(C4=NOC(c5c(F)cccc5Br)C4)cs3)CC2)n1` (stereo not drawn) [Compound 110, 1-(4-(4-(5-(2-bromo-6-fluorophenyl)-4,5-dihydroisoxazol-3-yl)thiazol-2-yl)piperidin-1-yl)-2-((4,6-dimethoxy-1,3,5-triazin-2-yl)oxy)ethan-1-one], for which the inhibition of growth at 30 ppm in the experiment with Phytophthora infestans [1] is no less than 70%. The pest or weed control at 50 ppm in the experiment with Plasmopara viticola and with Phytophthora infestans [2] was no less than 70% in each case.

For the origin of these results see patent US12471596B2 (priority 2019, dated 2025).
